Laboratory results from patent US20150316556A1, “SSEA4 AND ST3GAL2 AS CHEMOTHERAPEUTIC DRUG RESPONSE BIOMARKERS” (Miltenyi Biotech GmbH, priority 2014, published 2015).

How the values were obtained:
[1] = test system: primary tumor cell line derived from model HBCx-17 (suspension and adherent cells); assay: IC50 values of commonly used chemotherapeutic drugs on suspension versus adherent subpopulations of a primary tumor cell line; type: cell-based, human; details: HBCx-17 derived primary tumor cell line; n=3; suspension vs adherent subpopulation
[2] = test system: epithelial breast cell line MCF10A; assay: EMT induction in epithelial breast cell line by TGFβ1; type: cell-based, human
Method: The expression of SSEA4 was evaluated upon EMT induction. To induce a mesenchymal transition, the epithelial breast cell line MCF10A was treated with TGFβ1 at concentrations of 10 and 20 ng/ml. […] F-actin was stained by Phalloidin to visualize the cytoskeleton architecture. […] The fraction of SSEA4 positive cells was increased upon EMT induction (FIG. 8E) verifying that expression of SSEA4 indicates a more mesenchymal phenotype.
The results of the mRNA and the miRNA analysis strongly indicate that the expression of SSEA4 correlates with a more mesenchymal phenotype. […] To induce a mesenchymal transition, the epithelial breast cell line MCF10A was treated with TGFβ1 at concentrations of 10 and 20 ng/ml. […] Previously known key EMT markers like EpCAM, E-cadherin, Vimentin, and Fibronectin were regulated as expected, proving the efficiency of EMT induction using our method (FIG. 8 and data not shown). […] Strikingly, the fraction of SSEA4 positive cells was increased upon EMT induction verifying the correlation between SSEA4 expression and a more mesenchymal phenotype (FIG. 8).

O=c1[nH]cc(F)c(=O)[nH]1 [5-Fluorouracil]
IC50 values of suspension cells (higher SSEA4 expression) compared to adherent cells [1]: higher IC50 values

CC(=O)O[C@@]12CO[C@@H]1C[C@H](O)[C@@]1(C)C(=O)[C@H](O)C3=C(C)[C@@H](OC(=O)[C@H](O)[C@@H](NC(=O)OC(C)(C)C)c4ccccc4)C[C@@](O)([C@@H](OC(=O)c4ccccc4)[C@H]21)C3(C)C [Docetaxel]
IC50 values of suspension cells (higher SSEA4 expression) compared to adherent cells [1]: higher IC50 values

COc1cc([C@@H]2c3cc4c(cc3[C@@H](O[C@@H]3O[C@@H]5CO[C@@H](C)O[C@H]5[C@H](O)[C@H]3O)[C@H]3COC(=O)[C@H]23)OCO4)cc(OC)c1O [Etoposide]
IC50 values of suspension cells (higher SSEA4 expression) compared to adherent cells [1]: no difference

CCc1c2c(nc3ccc(OC(=O)N4CCC(N5CCCCC5)CC4)cc13)-c1cc3c(c(=O)n1C2)COC(=O)[C@]3(O)CC [Irinotecan]
IC50 values of suspension cells (higher SSEA4 expression) compared to adherent cells [1]: decreased IC50 values

CC[C@@]1(O)C(=O)OCc2c1cc1n(c2=O)Cc2cc3c(CN(C)C)c(O)ccc3nc2-1 [Topotecan]
IC50 values of suspension cells (higher SSEA4 expression) compared to adherent cells [1]: decreased IC50 values

COc1cccc2c1C(=O)c1c(O)c3c(c(O)c1C2=O)C[C@@](O)(C(=O)CO)C[C@@H]3O[C@H]1C[C@H](N)[C@H](O)[C@H](C)O1 [doxorubicin]
IC50 values of suspension cells (higher SSEA4 expression) compared to adherent cells [1]: higher IC50 values

TGFβ1: TGFβ1 used to induce a mesenchymal transition (EMT) in MCF10A cells
cell morphology upon treatment ([2]; TGFβ1 10 and 20 ng/ml): almost all cells changed their morphology from a compacted colony type to an elongated fibroblastic shape | epithelial marker E-cadherin expression upon treatment ([2]; TGFβ1 10 and 20 ng/ml): downregulated | epithelial marker EpCAM expression upon treatment ([2]; TGFβ1 10 and 20 ng/ml): downregulated | fraction of SSEA4 positive cells upon EMT induction ([2]; TGFβ1 10 and 20 ng/ml): increased | mesenchymal marker Fibronectin expression upon treatment ([2]; TGFβ1 10 and 20 ng/ml): upregulated | invasive potential of treated cells ([2]; TGFβ1, data not shown): strongly increased
